Blank lines part the entries; values can stand above or below the compound they belong to.
Tests used:
Type in all cases: physicochemical
[1] = Stability of chloroform solvate outside the mother liquor
[2] = Dynamic vapor sorption (DVS), moisture sorption/desorption isotherms; conditions: 25° C.
Procedure: Moisture sorption/desorption isotherms were recorded on a DVS-1from Surface Measurement Systems. […] The data were evaluated with the software DVSWin V. 2.15With samples of phase 1, 2, 3and 4of compound I the following water uptake (in mass percent) as a function of the relative humidity was determined.

[3] = Thermodynamic stability of the polymorphs as a function of temperature
[4] = Solubility compared to other polymorphs
[5] = Maturation experiments (slurry conversion), relative stability of the polymorphs; conditions: investigated temperature range 0° C. to 80° C.
Procedure: By maturation experiments (slurry conversion) in the temperature region from 0° C. to 80° C. the relative stability of the polymorphs of compound I was investigated.
Maturation experiments (a) to (d) were performed under the specified conditions, starting from a 1:1mixture of polymorphs 1and 4. • (a) The phase mixture was suspended in ethanol. After stirring the suspension for two days at 60° C., the solid was quickly isolated by vacuum filtration. • (b) The phase mixture was suspended in butyl acetate. After stirring the suspension for two days at 60° C., the solid was quickly isolated by vacuum filtration. • (c) The phase mixture was suspended in 1-pentanol. After stirring the suspension for four hours at 80° C., the solid was quickly isolated by vacuum filtration. • (d) The phase mixture was suspended in 1-octanol. After stirring the suspension for four hours at 80° C., the solid was quickly isolated by vacuum filtration.
Maturation experiments (e) to (p) were performed by stirring the suspension under the specified conditions and isolating the solid by vacuum filtration, starting from polymorph 4. • (e) Maturation of 0.208g of compound I in 1.3ml of water/methanol (1:1) was performed at room temperature for four weeks. […]

[6] = Temperature-resolved X-ray powder diffraction, DSC and TGA of toluene solvate; conditions: on loss of solvent
Procedure: All X-ray powder diffraction was performed with Stoe Stadi-P transmission diffractometers using CuKα1radiation. For room temperature powder diffraction, linear position sensitive detectors were used, while for temperature-resolved XRPD image plate position sensitive detectors (IP-PSDs) were used. Unless stated otherwise, X-ray powder diffraction was performed at room temperature. Dry samples were investigated in a flat preparation whereas suspensions were investigated in quartz glass capillaries. […] The 2θ (2theta) angles in ° (degree) and the relative intensities of characteristic reflections are specified above, wherein the relative intensity of a reflection is designated as “strong” if it is more than 75% of the intensity of the most intense reflection or it is the most intense reflection itself, and as “medium” if it is between 20% and 75% of the intensity of the most intense reflection.
All DSC measurements were performed with a Mettler DSC822e (module DSC822e/700/109/414935/0025). If not indicated differently, 40μl Al crucibles with sealed lid and hole were used. All measurements were carried out in a nitrogen gas flow of 50mL/minute. The heating rate was 10° C./minute unless indicated otherwise. Temperature and heat flow were calibrated via the melting peak of an indium reference. The measured data were evaluated with the software STARe V6.1.

- stability outside the mother liquor [1]: only moderately stable
- form obtained on transformation ([1]; outside the mother liquor): starts to transform to polymorph 2
SMILES: COc1ccc(CC(=O)NCc2ccccc2-c2ccccc2C(=O)NCCc2cccnc2)cc1 [chloroform solvate, 2′-{[2-(4-methoxy-phenyl)-acetylamino]-methyl}-biphenyl-2-carboxylic acid (2-pyridin-3-yl-ethyl)-amide]

- water uptake (in mass percent) ([2]; relative humidity 20%, listed as Phase 4): 0.05%
- water uptake (in mass percent) ([2]; relative humidity 40%, listed as Phase 4): 0.02%
- water uptake (in mass percent) ([2]; relative humidity 60%, listed as Phase 4): 0.15%
- water uptake (in mass percent) ([2]; relative humidity 80%, listed as Phase 4): 1.80%
- temperature range in which the polymorph is thermodynamically stable [3]: around 90 °C
SMILES: COc1ccc(CC(=O)NCc2ccccc2-c2ccccc2C(=O)NCCc2cccnc2)cc1 [Polymorph 4, 2′-{[2-(4-methoxy-phenyl)-acetylamino]-methyl}-biphenyl-2-carboxylic acid (2-pyridin-3-yl-ethyl)-amide]

- form obtained on transformation [6]: transforms to polymorph 4
SMILES: COc1ccc(CC(=O)NCc2ccccc2-c2ccccc2C(=O)NCCc2cccnc2)cc1 [toluene solvate, 2′-{[2-(4-methoxy-phenyl)-acetylamino]-methyl}-biphenyl-2-carboxylic acid (2-pyridin-3-yl-ethyl)-amide]

Continued, compound first:

SMILES: COc1ccc(CC(=O)NCc2ccccc2-c2ccccc2C(=O)NCCc2cccnc2)cc1 [Polymorph 2, 2′-{[2-(4-methoxy-phenyl)-acetylamino]-methyl}-biphenyl-2-carboxylic acid (2-pyridin-3-yl-ethyl)-amide]
- water uptake (in mass percent) ([2]; relative humidity 20%, listed as Phase 2): 0.04%
- water uptake (in mass percent) ([2]; relative humidity 40%, listed as Phase 2): 0.05%
- water uptake (in mass percent) ([2]; relative humidity 60%, listed as Phase 2): 0.09%
- water uptake (in mass percent) ([2]; relative humidity 80%, listed as Phase 2): 1.79%
- thermodynamic stability (in words) [3]: metastable at any temperature
- solubility compared to other polymorphs [4]: higher solubility

SMILES: COc1ccc(CC(=O)NCc2ccccc2-c2ccccc2C(=O)NCCc2cccnc2)cc1 [Polymorph 1, 2′-{[2-(4-methoxy-phenyl)-acetylamino]-methyl}-biphenyl-2-carboxylic acid (2-pyridin-3-yl-ethyl)-amide]
- water uptake (in mass percent) ([2]; relative humidity 20%, listed as Phase 1): 0.00%
- water uptake (in mass percent) ([2]; relative humidity 40%, listed as Phase 1): 0.01%
- water uptake (in mass percent) ([2]; relative humidity 60%, listed as Phase 1): 0.01%
- water uptake (in mass percent) ([2]; relative humidity 80%, listed as Phase 1): 1.36%
- relative thermodynamic stability among the known polymorphs [5]: thermodynamically most stable
- temperature range in which the polymorph is thermodynamically stable [3]: below 90 °C

SMILES: COc1ccc(CC(=O)NCc2ccccc2-c2ccccc2C(=O)NCCc2cccnc2)cc1 [Polymorph 3, 2′-{[2-(4-methoxy-phenyl)-acetylamino]-methyl}-biphenyl-2-carboxylic acid (2-pyridin-3-yl-ethyl)-amide]
- water uptake (in mass percent) ([2]; relative humidity 20%, listed as Phase 3): 0.02%
- water uptake (in mass percent) ([2]; relative humidity 40%, listed as Phase 3): 0.03%
- water uptake (in mass percent) ([2]; relative humidity 60%, listed as Phase 3): 0.06%
- water uptake (in mass percent) ([2]; relative humidity 80%, listed as Phase 3): 0.30%
- thermodynamic stability (in words) [3]: only metastable below 90 °C

Reference: patent US9056833B2, “Crystalline phases of 2′-{[2-(4-methoxy-phenyl)-acetylamino]-methyl}-biphenyl-2-carboxylic acid (2-pyridin-3-yl-ethyl)-amide” (SANOFI-AVENTIS DEUTSCHLAND GMBH, priority 2009, dated 2015)
